Test results as given in patent US12459934B2, “Pesticidal compounds” (BASF SE, priority 2018, dated 2025).

Columns and labels:
Assay type in all cases: in vivo
[1] = test system: Southern Armyworm (Spodoptera eridania), 2nd Instar Larvae; assay: Southern armyworm 2nd instar larvae on sprayed lima bean plants; details: 96 h, 4 days after treatment, read-out: mortality in comparison with untreated controls
Experimental: (§1) The active compounds were formulated in cyclohexanone as a 10,000 ppm solution supplied in tubes. The tubes were inserted into an automated electrostatic sprayer equipped with an atomizing nozzle and they served as stock solutions for which lower dilutions were made in 50% acetone:50% water (v/v). A nonionic surfactant (Kinetic®) was included in the solution at a volume of 0.01% (v/v).
Lima bean plants (variety Sieva) were grown 2 plants to a pot and selected for treatment at the 1st true leaf stage. Test solutions were sprayed onto the foliage by an automated electrostatic plant sprayer equipped with an atomizing spray nozzle. The plants were dried in the sprayer fume hood and then removed from the sprayer. Each pot was placed into perforated plastic bags with a zip closure. About 10 to 11 armyworm larvae were placed into the bag and the bags zipped closed. Test plants were maintained in a growth room at about 25° C. and about 20-40% relative humidity for 4 days, avoiding direct exposure to fluorescent light (24 hour photoperiod) to prevent trapping of heat inside the bags. Mortality and reduced feeding were assessed 4 days after treatment, compared to untreated control plants.

[2] = test system: boll weevil (Anthonomus grandis); assay: Boll weevil control, 96-well microtiter plate with insect diet and eggs; details: 120 h, sprayed onto insect diet, assessed after 5 days, read-out: mortality in comparison with untreated controls (egg and larval mortality)
Experimental: For evaluating control of boll weevil (Anthonomus grandis) the test unit consisted of 96-well-microtiter plates containing an insect diet and 5-10 A. grandis eggs.
The compounds were formulated using a solution containing 75% v/v water and 25% v/v DMSO. Different concentrations of formulated compounds were sprayed onto the insect diet at 5 μl, using a custom built micro atomizer, at two replications.
After application, microtiter plates were incubated at about 25±1° C. and about 75±5% relative humidity for 5 days. Egg and larval mortality was then visually assessed.

[3] = test system: Western Flower Thrips (Frankliniella occidentalis); assay: Western flower thrips on leaf discs of sprayed cotton plants; details: foliar, 48 h, 2 DAT (days after treatment), read-out: mortality in comparison with untreated controls
Experimental: The active compounds were formulated by a Tecan liquid handler in 100% cyclohexanone as a 10,000 ppm solution supplied in tubes. The 10,000 ppm solution was serially diluted in 100% cyclohexanone to make interim solutions. These served as stock solutions for which final dilutions were made by the Tecan in 50% acetone:50% water (v/v) into 10 or 20 ml glass vials. A nonionic surfactant (Kinetic®) was included in the solution at a volume of 0.01% (v/v). The vials were then inserted into an automated electrostatic sprayer equipped with an atomizing nozzle for application to plants/insects.
Small (˜2″ in height) cotton plants are sprayed with test compounds at concentrations ranging from 300 to 0.01 ppm in acetone/water through the automated VPS. After drying, cotton leaves are removed and circular leaf discs (−1 cm diameter) are punched from the treated surface and transferred to clean 20 mL scintillation vials. Ten Western flower thrips (FRANOC) are aspirated into each scintillation vial. The vials with the leaf discs and thrips are kept in an upright incubator at 25° C. and 50% relative humidity with a 14:10 light:dark photoperiod. Each treatment is replicated twice.
Thrips mortality is assessed at 2 DAT (days after treatment), counting all thrips both dead and alive. [The average absolute mortality is calculated for each treatment.]

[4] = test system: yellow fever mosquito (Aedes aegypti); assay: whole plant or invertebrate; details: 48 h, freshly hatched larvae in tap water, assessed after 2 days, read-out: mortality in comparison with untreated controls (larval mortality)
Experimental: For evaluating control of yellow fever mosquito (Aedes aegypti) the test unit consisted of 96-well-microtiter plates containing 200 μl of tap water per well and 5-15 freshly hatched A. aegypti larvae. The active compounds were formulated using a solution containing 75% (v/v) water and 25% (v/v) DMSO. Different concentrations of formulated compounds or mixtures were sprayed onto the insect diet at 2.5 μl, using a custom built micro atomizer, at two replications.
After application, microtiter plates were incubated at 28+1° C., 80+5% RH for 2 days. Larval mortality was then visually assessed.

[5] = test system: tobacco budworm (Heliothis virescens); assay: Tobacco budworm control, 96-well microtiter plate with insect diet and eggs; details: 120 h, sprayed onto insect diet, assessed after 5 days, read-out: mortality in comparison with untreated controls (egg and larval mortality)
Experimental: For evaluating control of tobacco budworm (Heliothis virescens) the test unit consisted of 96-well-microtiter plates containing an insect diet and 15-25 H. virescens eggs.
The compounds were formulated using a solution containing 75% v/v water and 25% v/v DMSO. Different concentrations of formulated compounds were sprayed onto the insect diet at 10 μl, using a custom built micro atomizer, at two replications.
After application, microtiter plates were incubated at about 28±1° C. and about 80±5% relative humidity for 5 days. Egg and larval mortality was then visually assessed.

[6] = test system: Orchid Thrips (Dichromothrips corbetti); assay: Orchid thrips, floral-immersion technique; details: dipped orchid petals, adult thrips, 72 hours after treatment, read-out: mortality in comparison with untreated controls
Experimental: Dichromothrips corbetti adults used for bioassay were obtained from a colony maintained continuously under laboratory conditions. For testing purposes, the test compound is diluted in a 1:1 mixture of acetone:water (vol:vol), plus Kinetic® HV at a rate of 0.01% v/v.
Thrips potency of each compound was evaluated by using a floral-immersion technique. All petals of individual, intact orchid flowers were dipped into treatment solution and allowed to dry in Petri dishes. Treated petals were placed into individual re-sealable plastic along with about 20 adult thrips. All test arenas were held under continuous light and a temperature of about 28° C. for duration of the assay. After 3 days, the numbers of live thrips were counted on each petal. The percent mortality was recorded 72 hours after treatment.

[7] = test system: Diamond Back Moth (Plutella xylostella); assay: Diamond back moth, cabbage leaf dip test; details: foliar, 3rd instar larvae, 72 hours after treatment, read-out: mortality in comparison with untreated controls
Experimental: The active compound is dissolved at the desired concentration in a mixture of 1:1 (vol:vol) distilled water:acetone. Surfactant (Alkamuls® EL 620) is added at a rate of 0.1% (vol/vol). The test solution is prepared at the day of use.
Leaves of cabbage were dipped in test solution and air-dried. Treated leaves were placed in petri dish enlined with moist filter paper and inoculated with ten 3rd instar larvae. Mortality was recorded 72 hours after treatment. Feeding damages were also recorded using a scale of 0-100%.

[8] = test system: Silverleaf Whitefly (Bemisia argentifolii) (Adults); assay: Silverleaf whitefly adults on sprayed cotton plants; details: 72 h, 3 days after treatment, read-out: mortality in comparison with untreated controls
From the text: as §1, with “non-ionic” for “nonionic”
Cotton plants at the cotyledon stage (one plant per pot) were sprayed by an automated electrostatic plant sprayer equipped with an atomizing spray nozzle. The plants were dried in the sprayer fume hood and then removed from the sprayer. Each pot was placed into a plastic cup and about 10 to 12 whitefly adults (approximately 3-5 days old) were introduced. The insects were collected using an aspirator and a nontoxic Tygon® tubing connected to a barrier pipette tip. The tip, containing the collected insects, was then gently inserted into the soil containing the treated plant, allowing insects to crawl out of the tip to reach the foliage for feeding. Cups were covered with a reusable screened lid. Test plants were maintained in a growth room at about 25° C. and about 20-40% relative humidity for 3 days, avoiding direct exposure to fluorescent light (24-hour photoperiod) to prevent trapping of heat inside the cup. Mortality was assessed 3 days after treatment, compared to untreated control plants.

CC(C)c1ccccc1NC(=S)N/N=C/c1ccc2c(C(=O)Nc3ccc(OC(F)(F)F)cc3)nccc2c1 [Compound C-1, 6-[(E)-[(2-isopropylphenyl)carbamothioylhydrazono]methyl]-N-[4-(trifluoromethoxy)phenyl]isoquinoline-1-carboxamide]
> 75%: mortality at 300 ppm [1] | mortality at 800 ppm [2] | mortality at 300 ppm [3] | mortality at 800 ppm [4] | mortality at 800 ppm [5] | mortality at 300 ppm [6] | mortality at 300 ppm [7]

CC(C)c1ccccc1N1C(=O)CS/C1=N\N=C\c1ccc2c(C(=O)Nc3ccc(OC(F)(F)F)cc3)nccc2c1 [Compound C-2, 6-[(E)-[(Z)-[3-(2-isopropylphenyl)-4-oxo-thiazolidin-2-ylidene]hydrazono]methyl]-N-[4-(trifluoromethoxy)phenyl]isoquinoline-1-carboxamide]
> 75%: mortality at 300 ppm [1] | mortality at 800 ppm [2] | mortality at 300 ppm [3] | mortality at 800 ppm [4] | mortality at 800 ppm [5] | mortality at 300 ppm [6] | mortality at 300 ppm [8] | mortality at 300 ppm [7]
